# Experimental data: patent US10857246B2, “Nuclear imaging and radiotherapeutics agents targeting carbonic anhydrase IX and uses thereof” (THE JOHNS HOPKINS UNIVERSITY, priority 2015, dated 2020)
# “Also recorded” adds a separate entry of the source.
# Legend:
# [1] = system: CAIX-expressing SK-RC-52 tumors; test: Biodistribution in mice bearing SK-RC-52 xenografts; format: in vivo; details: 740 kBq i.v.
# Method: Animal experiments were performed in accordance with protocols approved by the Johns Hopkins Animal Care and Use Committee (ACUC). Six-week-old female NOD/SCID mice were purchased from the Animal Resource Core of the Sidney Kimmel Comprehensive Cancer Center of Johns Hopkins and were subcutaneously injected in the lower left flank or upper right flank with 1×10^6 SK-RC-52 cells in RPMI 1640 GlutaMAX™ media (Life Technologies, Frederick, Md.) supplemented with 1% fetal bovine serum (FBS). Mice were monitored for tumor size and used for SPECT/CT imaging when the size of the tumor reached 100 mm^3.
# Mice bearing SK-RC-52 xenografts at lower left flank were injected intravenously with 740 kBq (20 μCi) of [^111In]XYIMSR-01, or [^177Lu]XYIMSR-01 in 200 μL of PBS. For competitive blocking, same tumor bearing mice were injected with 740 kBq (20 μCi) of [^111In]XYIMSR-01 and 200 nmole of 8 in 200 μL of PBS. At 1 h, 4 h, 8 h, 24 h and 48 h post-injection, mice were sacrificed by cervical dislocation and the blood was immediately collected by cardiac puncture. Heart, lungs, pancreas, spleen, fat, brain, muscle, small intestines, liver, stomach, kidney, urinary bladder, and tumor were collected. Each organ was weighed and the tissue radioactivity was measured with an automated gamma counter (1282 Compugamma CS, Pharmacia/LKBNuclear, Inc., Mt. Waverly, Vic. Australia). The percentage of injected dose per gram of tissue (% ID/g) was calculated by comparison with samples of a standard dilution of the initial dose. All measurements were corrected for radioactive decay.
# Data were expressed as mean±standard deviation (SD). Prism software (GraphPAD, San Diego, Calif.) was used to determine statistical significance. Statistical significance was calculated using a paired t test. P-values <0.0001 were considered significant.
# Mice bearing SK-RC-52 xenografts within the lower left flank were injected intravenously with 740 kBq (20 μCi) of [Al^18F]XYIMSR-04 in 200 μL of PBS. At specific 1 hour time point mentioned in the paper, mice (n=5) were sacrificed by cervical dislocation and the blood was immediately collected by cardiac puncture. Heart, lungs, pancreas, spleen, fat, brain, muscle, small intestines, liver, bone, stomach, kidney, urinary bladder, and tumor were collected. Each organ was weighed and the tissue radioactivity was measured with an automated gamma counter (1282 Compugamma CS, Pharmacia/LKBNuclear, Inc., Mt. Waverly, Vic. Australia). The percentage of injected dose per gram of tissue (% ID/g) was calculated by comparison with samples of a standard dilution of the initial dose. All measurements were corrected for radioactive decay. Data were expressed as mean±standard deviation (SD). Prism software (GraphPAD, San Diego, Calif.) was used to determine statistical significance. Statistical significance was calculated using a paired t test. P-values <0.0001 were considered significant.
# Mice bearing SK-RC-52 xenografts within the upper right flank were injected intravenously with 740 kBq (20 μCi) of [^64Cu]XYIMSR-06 in 200 μL of PBS. For in vivo competition (binding specificity) studies, tumor-bearing mice were injected with 740 kBq (20 μCi) of [^64Cu]XYIMSR-06 and 200 nmole of 8 in 200 μL of PBS concurrently. At specific times after injection (1 h, 4 h, 8 h and 24 h), mice (n=5) were sacrificed by cervical dislocation with blood immediately collected by cardiac puncture. Heart, lungs, pancreas, spleen, fat, brain, muscle, small intestines, liver, stomach, kidney, urinary bladder, and tumor were also collected. Each organ was weighed and the tissue radioactivity was measured with an automated gamma counter (1282 Compugamma CS, Pharmacia/LKBNuclear, Inc., Mt. Waverly, Vic. Australia). The percentage of injected dose per gram of tissue (% ID/g) was calculated by comparison with samples of a standard dilution of the initial dose. All measurements were corrected for radioactive decay. Data were expressed as mean±standard deviation (SD). […]
# CAIX = biological target: T1, CAIX (Homo sapiens, UniProt Q16790); test: CAIX specific uptake in vitro; format: cell-based
# T1 construct: host or cells: ccRCC tumours in patients
# SK-RC-52 xenografts = test: Radio-therapy of mice bearing SK-RC-52 xenografts; format: in vivo; details: 11.1 MBq and 18.5 MBq i.v., n=4
compound,measurement,setting,value
CC(CCC(=O)N[C@@H](CC(=O)N[C@@H](CC(=O)N[C@@H](CCCCn1cc(CCCC(=O)Nc2nnc(S(N)(=O)=O)s2)nn1)C(=O)NCCOCCOCCNC(=O)CN1CCN(CC(=O)[O-])CCN(CC(=O)[O-])CCN(CC(=O)[O-])CC1)C(=O)O)C(=O)O)(c1ccc(O)cc1)c1ccc(O)cc1.[177Lu+3] [[^177Lu]XYIMSR-01],Biodistribution Bladder,[1]; 1 h post-injection,26.55 % ID/g
same,Biodistribution Blood,[1]; 1 h post-injection,0.55 % ID/g
same,Biodistribution Brain,[1]; 1 h post-injection,0.49 % ID/g
same,Biodistribution Fat,[1]; 1 h post-injection,1.07 % ID/g
same,Biodistribution Heart,[1]; 1 h post-injection,3.59 % ID/g
same,Biodistribution Kidney,[1]; 1 h post-injection,40.77 % ID/g
same,Biodistribution Liver,[1]; 1 h post-injection,4.15 % ID/g
same,Biodistribution Lung,[1]; 1 h post-injection,23.72 % ID/g
same,Biodistribution Muscle,[1]; 1 h post-injection,1.42 % ID/g
same,Biodistribution Pancreas,[1]; 1 h post-injection,2.03 % ID/g
same,Biodistribution Small intestine,[1]; 1 h post-injection,6.11 % ID/g
same,Biodistribution Spleen,[1]; 1 h post-injection,0.29 % ID/g
same,Biodistribution Stomach,[1]; 1 h post-injection,12.20 % ID/g
same,Biodistribution Tumor,[1]; 1 h post-injection,26.91 % ID/g
same,Tumor/Blood ratio,[1]; 1 h post-injection,47.9
same,Tumor/Kidney ratio,[1]; 1 h post-injection,0.6
same,Tumor/Muscle ratio,[1]; 1 h post-injection,18.8
same,Biodistribution Bladder,[1]; 4 h post-injection,6.60 % ID/g
same,Biodistribution Blood,[1]; 4 h post-injection,0.18 % ID/g
same,Biodistribution Brain,[1]; 4 h post-injection,0.33 % ID/g
same,Biodistribution Fat,[1]; 4 h post-injection,0.56 % ID/g
same,Biodistribution Heart,[1]; 4 h post-injection,1.52 % ID/g
same,Biodistribution Kidney,[1]; 4 h post-injection,19.17 % ID/g
same,Biodistribution Liver,[1]; 4 h post-injection,1.79 % ID/g
same,Biodistribution Lung,[1]; 4 h post-injection,10.35 % ID/g
same,Biodistribution Muscle,[1]; 4 h post-injection,0.65 % ID/g
same,Biodistribution Pancreas,[1]; 4 h post-injection,0.99 % ID/g
same,Biodistribution Small intestine,[1]; 4 h post-injection,2.64 % ID/g
same,Biodistribution Spleen,[1]; 4 h post-injection,0.15 % ID/g
same,Biodistribution Stomach,[1]; 4 h post-injection,6.06 % ID/g
same,Biodistribution Tumor,[1]; 4 h post-injection,26.28 % ID/g
same,Tumor/Blood ratio,[1]; 4 h post-injection,150.3
same,Tumor/Kidney ratio,[1]; 4 h post-injection,1.4
same,Tumor/Muscle ratio,[1]; 4 h post-injection,43.7
same,Biodistribution Bladder,[1]; 8 h post-injection,6.00 % ID/g
same,Biodistribution Blood,[1]; 8 h post-injection,0.16 % ID/g
same,Biodistribution Brain,[1]; 8 h post-injection,0.44 % ID/g
same,Biodistribution Fat,[1]; 8 h post-injection,0.46 % ID/g
same,Biodistribution Heart,[1]; 8 h post-injection,1.49 % ID/g
same,Biodistribution Kidney,[1]; 8 h post-injection,18.99 % ID/g
same,Biodistribution Liver,[1]; 8 h post-injection,1.87 % ID/g
same,Biodistribution Lung,[1]; 8 h post-injection,8.87 % ID/g
same,Biodistribution Muscle,[1]; 8 h post-injection,0.47 % ID/g
same,Biodistribution Pancreas,[1]; 8 h post-injection,1.03 % ID/g
same,Biodistribution Small intestine,[1]; 8 h post-injection,3.67 % ID/g
same,Biodistribution Spleen,[1]; 8 h post-injection,0.29 % ID/g
same,Biodistribution Stomach,[1]; 8 h post-injection,6.15 % ID/g
same,Biodistribution Tumor,[1]; 8 h post-injection,27.48 % ID/g
same,Tumor/Blood ratio,[1]; 8 h post-injection,178.6
same,Tumor/Kidney ratio,[1]; 8 h post-injection,1.5
same,Tumor/Muscle ratio,[1]; 8 h post-injection,65.0
same,Biodistribution Bladder,[1]; 24 h + block (200 nmole of 8),0.73 % ID/g
same,Biodistribution Blood,[1]; 24 h + block (200 nmole of 8),0.04 % ID/g
same,Biodistribution Brain,[1]; 24 h + block (200 nmole of 8),0.04 % ID/g
same,Biodistribution Fat,[1]; 24 h + block (200 nmole of 8),0.03 % ID/g
same,Biodistribution Heart,[1]; 24 h + block (200 nmole of 8),0.08 % ID/g
same,Biodistribution Kidney,[1]; 24 h + block (200 nmole of 8),1.54 % ID/g
same,Biodistribution Liver,[1]; 24 h + block (200 nmole of 8),0.46 % ID/g
same,Biodistribution Lung,[1]; 24 h + block (200 nmole of 8),0.73 % ID/g
same,Biodistribution Muscle,[1]; 24 h + block (200 nmole of 8),0.03 % ID/g
same,Biodistribution Pancreas,[1]; 24 h + block (200 nmole of 8),0.05 % ID/g
same,Biodistribution Small intestine,[1]; 24 h + block (200 nmole of 8),0.18 % ID/g
same,Biodistribution Spleen,[1]; 24 h + block (200 nmole of 8),0.38 % ID/g
same,Biodistribution Stomach,[1]; 24 h + block (200 nmole of 8),0.21 % ID/g
same,Biodistribution Tumor,[1]; 24 h + block (200 nmole of 8),1.70 % ID/g
same,Tumor/Blood ratio,[1]; 24 h + block (200 nmole of 8),42.0
same,Tumor/Kidney ratio,[1]; 24 h + block (200 nmole of 8),1.4
same,Tumor/Muscle ratio,[1]; 24 h + block (200 nmole of 8),58.6
same,Biodistribution Bladder,[1]; 24 h post-injection,1.29 % ID/g
same,Biodistribution Blood,[1]; 24 h post-injection,0.02 % ID/g
same,Biodistribution Brain,[1]; 24 h post-injection,0.28 % ID/g
same,Biodistribution Fat,[1]; 24 h post-injection,0.05 % ID/g
same,Biodistribution Heart,[1]; 24 h post-injection,0.28 % ID/g
same,Biodistribution Kidney,[1]; 24 h post-injection,3.11 % ID/g
same,Biodistribution Liver,[1]; 24 h post-injection,0.47 % ID/g
same,Biodistribution Lung,[1]; 24 h post-injection,1.48 % ID/g
same,Biodistribution Muscle,[1]; 24 h post-injection,0.10 % ID/g
same,Biodistribution Pancreas,[1]; 24 h post-injection,0.16 % ID/g
same,Biodistribution Small intestine,[1]; 24 h post-injection,0.96 % ID/g
same,Biodistribution Spleen,[1]; 24 h post-injection,0.20 % ID/g
same,Biodistribution Stomach,[1]; 24 h post-injection,1.02 % ID/g
same,Biodistribution Tumor,[1]; 24 h post-injection,12.51 % ID/g
same,Biodistribution Bladder,[1]; 48 h + block (200 nmole of 8),0.28 % ID/g
same,Biodistribution Blood,[1]; 48 h + block (200 nmole of 8),0.04 % ID/g
same,Biodistribution Brain,[1]; 48 h + block (200 nmole of 8),0.02 % ID/g
same,Biodistribution Fat,[1]; 48 h + block (200 nmole of 8),0.02 % ID/g
same,Biodistribution Heart,[1]; 48 h + block (200 nmole of 8),0.04 % ID/g
same,Biodistribution Kidney,[1]; 48 h + block (200 nmole of 8),0.39 % ID/g
same,Biodistribution Liver,[1]; 48 h + block (200 nmole of 8),0.23 % ID/g
same,Biodistribution Lung,[1]; 48 h + block (200 nmole of 8),0.18 % ID/g
same,Biodistribution Muscle,[1]; 48 h + block (200 nmole of 8),0.01 % ID/g
same,Biodistribution Pancreas,[1]; 48 h + block (200 nmole of 8),0.02 % ID/g
same,Biodistribution Small intestine,[1]; 48 h + block (200 nmole of 8),0.05 % ID/g
same,Biodistribution Spleen,[1]; 48 h + block (200 nmole of 8),0.15 % ID/g
same,Biodistribution Stomach,[1]; 48 h + block (200 nmole of 8),0.09 % ID/g
same,Biodistribution Tumor,[1]; 48 h + block (200 nmole of 8),0.65 % ID/g
same,Tumor/Blood ratio,[1]; 48 h + block (200 nmole of 8),42.7
same,Tumor/Kidney ratio,[1]; 48 h + block (200 nmole of 8),1.7
same,Tumor/Muscle ratio,[1]; 48 h + block (200 nmole of 8),62.5
same,Biodistribution Bladder,[1]; 48 h post-injection,0.20 % ID/g
same,Biodistribution Blood,[1]; 48 h post-injection,0.04 % ID/g
same,Biodistribution Brain,[1]; 48 h post-injection,0.17 % ID/g
same,Biodistribution Fat,[1]; 48 h post-injection,0.03 % ID/g
same,Biodistribution Heart,[1]; 48 h post-injection,0.12 % ID/g
same,Biodistribution Kidney,[1]; 48 h post-injection,0.76 % ID/g
same,Biodistribution Liver,[1]; 48 h post-injection,0.19 % ID/g
same,Biodistribution Lung,[1]; 48 h post-injection,0.90 % ID/g
same,Biodistribution Muscle,[1]; 48 h post-injection,0.04 % ID/g
same,Biodistribution Pancreas,[1]; 48 h post-injection,0.06 % ID/g
same,Biodistribution Small intestine,[1]; 48 h post-injection,0.20 % ID/g
same,Biodistribution Spleen,[1]; 48 h post-injection,0.13 % ID/g
same,Biodistribution Stomach,[1]; 48 h post-injection,0.35 % ID/g
same,Biodistribution Tumor,[1]; 48 h post-injection,5.82 % ID/g
same,Tumor/Blood ratio,[1]; 48 h post-injection,200.2
same,Tumor/Kidney ratio,[1]; 48 h post-injection,7.1
same,Tumor/Muscle ratio,[1]; 48 h post-injection,141.5
same,Uptake in vitro,CAIX,CAIX specific uptake
same,Tumor growth compared with control non-treated mice,SK-RC-52 xenografts,Delays in tumor growth; also recorded: significant therapeutic effect in controlling tumor growth
